Reference: patent EP4752152A1, “STEROID COMPOUND, AND PREPARATION METHOD THEREFOR AND USE THEREOF” (Cholesgen (Shanghai) Co.Ltd., priority 2023, dated 2025)

Key:
[1] = test system: Fatty Acid Synthase (FASN) gene; assay: Inhibition of FASN gene expression (qPCR) in Huh-7 cells; assay type: cell-based, human; settings: Homo sapiens, Huh-7, 16 h, Huh-7 cells, starvation medium, 16 hours, qPCR; class symbols; read-out: FASN IC50
Protocol: Huh-7 cells (purchased from ATCC) were cultured in DMEM medium (containing 10% fetal bovine serum LONSERA S711-001S) at 37°C in a 5% CO2 incubator. After 24 hours, the original medium was aspirated and replaced with DMEM starvation medium (containing 5% lipoprotein deficient serum (LPDS), 2 µM lovastatin, and 10 µM mevalonate). The control group was treated with dimethyl sulfoxide (DMSO), while the compound treatment groups were treated with different concentrations of compounds. The highest concentration of the compound was 3000 nM, with 3-fold dilutions, totaling 5 concentrations. The cells were cultured for 16 hours. Cell lysis was performed, followed by reverse transcription from cells to cDNA, and qPCR was performed to detect the expression of the SREBP target gene Fatty Acid Synthase (FASN) gene (FASN gene forward primer sequence: 5'-[…]-3', reverse primer sequence: 5'-[…]-3'). The IC50 was calculated. The test data for each test compound were analyzed using Prism software (with the DMSO-treated group as the reference to calculate the compound inhibition rate, fitted using the Prism log(inhibitor) vs. responseVariable slope (four-parameter) model, calculation formula: Y = Bottom + (Top - Bottom)/(1 + 10^((LogIC50 - X) × HillSlope))), to obtain the IC50 parameters of the compounds. Table 4: Inhibition results of FASN gene expression by compounds from some examples

SREBP pathway = assay: SREBP luciferase reporter gene system (SRE-luciferase assay); assay type: cell-based, human; settings: Huh-7/SRE-luc cells, sterol-deficient medium, 0.01-10 µM
How it was run: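 Huh-7 cells stably carrying LDLR promoter-luciferase plus GFP were treated 16 h in sterol-deficient medium (5% lipoprotein-deficient serum, 2 µM lovastatin, 10 µM mevalonic acid) at 0.01–10 µM. Luciferase/GFP ratio measured as pathway activity; inhibition versus DMSO fitted to a four-parameter model for IC50.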

## COc1ccnc(OC)c1C(O)CCC[C@@H](C)[C@H]1CC[C@H]2[C@H]3[C@H](CC[C@]12C)[C@@]1(C)CC[C@H](O)[C@H](O)[C@@H]1CC3(F)F (single isomer, unassigned) [Compound 171, (1R,3aS,3bS,5aR,6R,7S,9aR,9bS,11aR)-1-[(2R,6S)-6-(2,4-dimethoxypyridin-3-yl)-6-hydroxyhexan-2-yl]-4,4-difluoro-9a,11a-dimethylhexadecahydro-1H-cyclopenta[1,2-a]phenanthrene-6,7-diol or (1R,3aS,3bS,5aR,6R,7S,9aR,9bS,11aR)-1-[(2R,6R)-6-(2,4-dimethoxypyridin-3-yl)-6-hydroxyhexan-2-yl]-4,4-difluoro-9a,11a-dimethylhexadecahydro-1H-cyclopenta[1,2-a]phenanthrene-6,7-diol]
[1]
  IC50: < 200 nM
SREBP pathway; 16 hours
  IC50: 0.013 µM

## C[C@H](CCCC(O)c1cccc(OC(F)(F)F)c1)[C@H]1CC[C@H]2[C@H]3[C@H](CC[C@]12C)[C@@]1(C)CC[C@H](O)[C@H](O)[C@@H]1CC3(F)F (single isomer, unassigned) [Compound 191, (1R,3aS,3bS,5aR,6R,7S,9aR,9bS,11aR)-4,4-difluoro-1-[(2R,6R)-6-hydroxy-6-{3-[(trifluoromethyl)oxy]phenyl}hexan-2-yl]-9a,11a-dimethylhexadecahydro-1H-cyclopenta[1,2-a]phenanthrene-6,7-diol or (1R,3aS,3bS,5aR,6R,7S,9aR,9bS,11aR)-4,4-difluoro-1-[(2R,6S)-6-hydroxy-6-(2-methoxypyridin-3-yl)hexan-2-yl]-9a,11a-dimethylhexadecahydro-1H-cyclopenta[1,2-a]phenanthrene-6,7-diol]
[1]
  IC50: 200 to 500 nM
SREBP pathway; 16 hours
  IC50: 0.246 µM

## C[C@H](CCC[C@H](O)c1n[nH]c2ccccc12)[C@H]1CC[C@H]2[C@H]3[C@H](CC[C@]12C)[C@@]1(C)CC[C@H](O)[C@H](O)[C@@H]1CC3(F)F [Compound 319, (1R,3aS,3bS,5aR,6R,7S,9aR,9bS,11aR)-4,4-difluoro-1-[(2R,6S)-6-hydroxy-6-(1H-indazol-3-yl)hexan-2-yl]-9a,11a-dimethylhexadecahydro-1H-cyclopenta[1,2-a]phenanthrene-6,7-diol]
SREBP pathway; Homo sapiens, Huh-7, 16 h
  IC50: 0.104 µM

## C[C@H](CCC[C@H](O)c1cc2ccccc2o1)[C@H]1CC[C@H]2[C@H]3[C@H](CC[C@]12C)[C@@]1(C)CC[C@H](O)[C@H](O)[C@@H]1CC3(F)F [Compound 321, (1R,3aS,3bS,5aR,6R,7S,9aR,9bS,11aR)-1-[(2R,6S)-6-(1-benzofuran-2-yl)-6-hydroxyhexan-2-yl]-4,4-difluoro-9a,11a-dimethylhexadecahydro-1H-cyclopenta[1,2-a]phenanthrene-6,7-diol]
SREBP pathway; 16 hours
  IC50: 0.114 µM

## C[C@H](CCC[C@@H](O)c1cc2ccccc2o1)[C@H]1CC[C@H]2[C@H]3[C@H](CC[C@]12C)[C@@]1(C)CC[C@H](O)[C@H](O)[C@@H]1CC3(F)F [Compound 322, (1R,3aS,3bS,5aR,6R,7S,9aR,9bS,11aR)-1-[(2R,6R)-6-(1-benzofuran-2-yl)-6-hydroxyhexan-2-yl]-4,4-difluoro-9a,11a-dimethylhexadecahydro-1H-cyclopenta[1,2-a]phenanthrene-6,7-diol]
SREBP pathway; 16 hours
  IC50: 0.339 µM

## C[C@H](CCC[C@H](O)c1nn(C)c2ccccc12)[C@H]1CC[C@H]2[C@H]3[C@H](CC[C@]12C)[C@@]1(C)CC[C@H](O)[C@H](O)[C@@H]1CC3(F)F [Compound 323, (1R,3aS,3bS,5aR,6R,7S,9aR,9bS,11aR)-4,4-difluoro-1-[(2R,6S)-6-hydroxy-6-(1-methylindazol-3-yl)hexan-2-yl]-9a,11a-dimethylhexadecahydro-1H-cyclopenta[1,2-a]phenanthrene-6,7-diol]
SREBP pathway; Homo sapiens, Huh-7, 16 h
  IC50: 0.262 µM

## C[C@H](CCC[C@@H](O)c1nn(C)c2ccccc12)[C@H]1CC[C@H]2[C@H]3[C@H](CC[C@]12C)[C@@]1(C)CC[C@H](O)[C@H](O)[C@@H]1CC3(F)F [Compound 324, (1R,3aS,3bS,5aR,6R,7S,9aR,9bS,11aR)-4,4-difluoro-1-[(2R,6R)-6-hydroxy-6-(1-methylindazol-3-yl)hexan-2-yl]-9a,11a-dimethylhexadecahydro-1H-cyclopenta[1,2-a]phenanthrene-6,7-diol]
SREBP pathway; Homo sapiens, Huh-7, 16 h
  IC50: 1.51 µM

## C[C@H](CCCC(O)c1c2ccccc2nn1C)[C@H]1CC[C@H]2[C@H]3[C@H](CC[C@]12C)[C@@]1(C)CC[C@H](O)[C@H](O)[C@@H]1CC3(F)F (stereo partly drawn) [Compound 325, (1R,3aS,3bS,5aR,6R,7 S,9aR,9bS,11aR)-4,4-Difluoro-1-[(2R)-6-hydroxy-6-(2-methylindazol-3-yl)hexan-2-yl]-9a,11a-dimethylhexadecahydro-1H-cyclopenta[1,2-a]phenanthrene-6,7-diol]
SREBP pathway; Homo sapiens, Huh-7, 16 h
  IC50: 0.148 µM

## COc1nc(F)ccc1[C@@H](O)CC[C@@H](C)[C@H]1CC[C@H]2C3=C(F)C[C@H]4[C@@H](O)[C@@H](O)CC[C@]4(C)[C@H]3CC[C@]12C [Compound 339, (1R,3aR,5aR,6R,7S,9aR,9bR,11aR)-4-fluoro-1-[(2R,5S)-5-(6-fluoro-2-methoxypyridin-3-yl)-5-hydroxypentan-2-yl]-9a,11a-dimethyl-2,3,3a,5,5a,6,7,8,9,9a,9b,10,11,11a-tetradecahydro-1H-cyclopenta[1,2-a]phenanthrene-6,7-diol]
SREBP pathway; Homo sapiens, Huh-7, 16 h
  IC50: 0.143 µM

## COc1nc(F)ccc1[C@H](O)CC[C@@H](C)[C@H]1CC[C@H]2C3=C(F)C[C@H]4[C@@H](O)[C@@H](O)CC[C@]4(C)[C@H]3CC[C@]12C [Compound 340, (1R,3aR,5aR,6R,7S,9aR,9bR,11aR)-4-fluoro-1-[(2R,5R)-5-(6-fluoro-2-methoxypyridin-3-yl)-5-hydroxypentan-2-yl]-9a,11a-dimethyl-2,3,3a,5,5a,6,7,8,9,9a,9b,10,11,11a-tetradecahydro-1H-cyclopenta[1,2-a]phenanthrene-6,7-diol]
SREBP pathway; Homo sapiens, Huh-7, 16 h
  IC50: 0.108 µM

## COc1nc(F)ccc1C(O)CC[C@@H](C)[C@H]1CC[C@H]2[C@H]3[C@H](CC[C@]12C)[C@@]1(C)CC[C@H](O)[C@H](O)[C@@H]1CC3(F)F (stereo partly drawn) [Compound 341, (1R,3aS,3bS,5aR,6R,7S,9aR,9bS,11aR)-4,4-difluoro-1-[(2R)-5-(6-fluoro-2-methoxypyridin-3-yl)-5-hydroxypentan-2-yl]-9a,11a-dimethylhexadecahydro-1H-cyclopenta[1,2-a]phenanthrene-6,7-diol]
SREBP pathway; Homo sapiens, Huh-7, 16 h
  IC50: 0.206 µM

## C[C@H](CCC(O)c1ccc(F)nc1OC1CC1)[C@H]1CC[C@H]2[C@H]3[C@H](CC[C@]12C)[C@@]1(C)CC[C@H](O)[C@H](O)[C@@H]1CC3(F)F (stereo partly drawn) [Compound 382, (1R,3aS,3bS,5aR,6R,7S,9aR,9bS,11aR)-1-[(2R)-5-[2-(cyclopropyloxy)-6-fluoropyridin-3-yl]-5-hydroxypentan-2-yl]-4,4-difluoro-9a,11a-dimethylhexadecahydro-1H-cyclopenta[1,2-a]phenanthrene-6,7-diol]
SREBP pathway; Homo sapiens, Huh-7, 16 h
  IC50: 0.057 µM

## C[C@H](CCCC(O)c1ccc(F)nc1OCC1COC1)[C@H]1CC[C@H]2[C@H]3[C@H](CC[C@]12C)[C@@]1(C)CC[C@H](O)[C@H](O)[C@@H]1CC3(F)F (stereo partly drawn) [Compound 383, (1R,3aS,3bS,5aR,6R,7S,9aR,9bS,11aR)-4,4-difluoro-1-[(2R)-6-{6-fluoro-2-[(oxetan-3-ylmethyl)oxy]pyridin-3-yl}-6-hydroxyhexan-2-yl]-9a,11a-dimethylhexadecahydro-1H-cyclopenta[1,2-a]phenanthrene-6,7-diol]
SREBP pathway; Homo sapiens, Huh-7, 16 h
  IC50: 0.041 µM

## C[C@H](CCCC(O)c1nnnn1C)[C@H]1CC[C@H]2[C@H]3[C@H](CC[C@]12C)[C@@]1(C)CC[C@H](O)[C@H](O)[C@@H]1CC3(F)F (stereo partly drawn) [Compound 384, (1R,3aS,3bS,5aR,6R,7 S,9aR,9bS,11aR)-4,4-Difluoro-1-[(2R)-6-hydroxy-6-(1-methyl-1,2,3,4-tetrazol-5-yl)hexan-2-yl]-9a,11a-dimethylhexadecahydro-1H-cyclopenta[1,2-a]phenanthrene-6,7-diol]
SREBP pathway; Homo sapiens, Huh-7, 16 h
  IC50: 0.185 µM

## C[C@H](CCC[C@H](O)c1ccc(F)nc1OCC1COC1)[C@H]1CC[C@H]2[C@H]3[C@H](CC[C@]12C)[C@@]1(C)CC[C@H](O)[C@H](O)[C@@H]1CC3(F)F [Compound 385, (1R,3aS,3bS,5aR,6R,7S,9aR,9bS,11aR)-4,4-difluoro-1-[(2R,6S)-6-{6-fluoro-2-[(oxetan-3-ylmethyl)oxy]pyridin-3-yl}-6-hydroxyhexan-2-yl]-9a,11a-dimethylhexadecahydro-1H-cyclopenta[1,2-a]phenanthrene-6,7-diol]
SREBP pathway; Homo sapiens, Huh-7, 16 h
  IC50: 0.332 µM

## C[C@H](CCC[C@@H](O)c1ccc(F)nc1OCC1COC1)[C@H]1CC[C@H]2[C@H]3[C@H](CC[C@]12C)[C@@]1(C)CC[C@H](O)[C@H](O)[C@@H]1CC3(F)F [Compound 386, (1R,3aS,3bS,5aR,6R,7S,9aR,9bS,11aR)-4,4-difluoro-1-[(2R,6R)-6-{6-fluoro-2-[(oxetan-3-ylmethyl)oxy]pyridin-3-yl}-6-hydroxyhexan-2-yl]-9a,11a-dimethylhexadecahydro-1H-cyclopenta[1,2-a]phenanthrene-6,7-diol]
SREBP pathway; Homo sapiens, Huh-7, 16 h
  IC50: 0.026 µM
